Assay results as given in US11505580B2, “Leech polypeptide and use thereof” (priority 2019, dated 2022).
Where no end group is shown, it is not given here.

Tests used:
Format in all cases: cell-based
macrophages RAW264.7 = experiment: Transwell migration assay, LPS-induced macrophage RAW264.7 migration; conditions: 800 μg/mL, 1 μg/mL LPS
Text: In this example, a leech zymolyte HE was firstly prepared from […] by enzymolysis. […] Then, HE was separated and purified by chromatography on QSepharose FF strong basic anion exchange column, and chromatography on Superdex30, Superdexpeptide and G10 gel column, and Transwell assay was done to track the activity. Finally leech polypeptide HE4-1 having activity to inhibit the migration of macrophages RAW264.7 was obtained. Transwell migration assay was used to detect the activity of HE1-HE6 in inhibiting the macrophage migration. […] Transwell assay was used to detect the inhibition of HE-D on the migration activity of macrophages RAW264.7. The experiments were divided into five groups, including a blank control group, an LPS model group and 200, 400, 800 μg/mL HE-D groups.

macrophage RAW264.7 [1] = experiment: Neutral red phagocytosis test; conditions: 0-800 μg/mL
Protocol: (§1) The effects of HE-D on the phagocytosis ability and lysozyme activity of macrophage RAW264.7 were measured by neutral red phagocytosis test and lysozyme activity assay.

JNK = experiment: Western-blot of JNK signaling pathway in LPS-induced RAW264.7 cells; conditions: RAW264.7 induced with LPS
Protocol: (§2) The mechanism of HE-D inhibiting macrophages RAW264.7 was tested by Western-blot.

p38 = experiment: Western-blot of p38 signaling pathway in LPS-induced RAW264.7 cells; conditions: RAW264.7 induced with LPS
Protocol: as §2

IL-6 = experiment: ELISA of IL-6 secretion by macrophages RAW264.7; conditions: 0-800 μg/mL
Text: (§3) The effect of HE-D on the secretion of IL-1, IL-6, IL-12, and TNF-α by macrophages RAW264.7 was detected by ELISA.

IL-12 = experiment: ELISA of IL-12 secretion by macrophages RAW264.7; conditions: 0-800 μg/mL
Text: as §3

macrophage RAW264.7 [2] = experiment: Lysozyme activity assay; conditions: 0-800 μg/mL
Protocol: as §1

TNF-α = experiment: ELISA of TNF-α secretion by macrophages RAW264.7; conditions: 400 and 800 μg/mL
Text: as §3

IL-1 = experiment: ELISA of IL-1 secretion by macrophages RAW264.7; conditions: 0-800 μg/mL
Text: as §3

In the case of “EAGSAKELEGDPVAG [HE4-1, leech polypeptide isolated and purified from HE4 by Superdex30, Superdexpeptide and G10 gel chromatography]”, the “inhibition rate of LPS-induced migration of macrophages RAW264.7” value (macrophages RAW264.7) is reported as 15.2%.

In the case of EAGSAKELEGDPVAG [HE-D], the “phagocytosis ability of macrophages RAW264.7” value (macrophage RAW264.7 [1]) is reported as “no obvious effect”, the “LPS-induced increase in expression level of phosphorylated JNK protein” value (JNK; 800 μg/mL) is reported as “significantly inhibit the increase” and the “expression of JNK protein” value (JNK) is reported as “no significant effect”. The “LPS-induced increase in expression level of phosphorylated p38 protein” value (p38; 800 μg/mL) was “significantly inhibit the increase”, the “expression of total p38 protein” value (p38) was “no significant effect” and the “secretion of IL-6” value (IL-6) was “no significant effect”. The “secretion of IL-12” value (IL-12) was “no significant effect”, the “lysozyme activity of macrophages RAW264.7” value (macrophage RAW264.7 [2]) was “no obvious effect” and the “promotion effect on secretion of TNF-α” value (TNF-α) was 11.4%. For the same sequence, the “secretion of TNF-α” value (TNF-α) was “promote the secretion”, the “secretion of IL-1” value (IL-1) was “no significant effect” and the “inhibition rate of LPS-induced migration of macrophages RAW264.7” value (macrophages RAW264.7) was 14.9%.
